Reference: patent publication US11352350B2, “IRAK degraders and uses thereof” (Kymera Therapeutics, Inc., priority 2018, dated 2022)
Like-named read-outs stand apart in the source and are kept apart here.

What was measured:
[1] = target: T1, IRAK4 (Homo sapiens (Human), UniProt Q9NWZ3); assay: IRAK4 MSD degradation in OCI-LY10; type: cell-based
How it was run: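 Remaining IRAK4 quantified by electrochemiluminescent MSD sandwich assay with two anti-IRAK4 antibodies. Compounds were dosed as 8 concentrations in 1:3 steps from a 1 to 10 μM final top on OCI-LY10 cells, incubated 4 to 24 h at 37° C. under 5% CO2. DC50 fitted with a three-parameter logistic curve.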

[2] = target: T1, IRAK4; assay: hPBMC IRAK4 degradation flow assay; type: cell-based; conditions: hPBMC monocyte
Procedure: hPBMC IRAK4 degradation flow assay. Frozen PBMCs were thawed into RPMI with 10% FBS and allowed to recover. On the same day as thawed, PBMCs were plated in 96 well plate, 90 uL per well. Compound plates were prepared and a 10 point, 5-fold dilution was performed with a final DMSO concentration of 0.1%. Compound 10 μL per well was added, sealed and incubated at 37° C., 5% C02 for 20 hours (for 4 hour treatment, compounds were prepared and added the following day). […] Cells were spun down and washed two times with PBS/0.5% BSA, aspirated to pellet and placed into −80° C. freezer until further processing for flow. On the flow run day, PBMC plates were thawed and samples were transferred to PCR plates. The pre-perm staining cocktail (CD3 Ax488/CD8 BUV805/CD14 BUV395/CD16/56 BV711/CD19 BV785) was added to samples and incubated for 30 minutes at room temperature. Samples were washed two times and permeabilized with methanol for 10 minutes at 4° C. […] Samples were washed two times with PBS/BSA and run on a BD LSRFortessa. Mononuclear cells are gated by SSCH/FSCH and single cells. Monocytes are then gated through CD14 positive gate and lymphocytes are gated through CD14 negative gate. To determine absolute DC50s and max degradation values, MFI values were normalized to DMSO max and 20 hour 10 μM min control. Twenty hour dose curves were calculated using a 4 parameter logistic regression curve fit, no constraints (Top doses were removed if hook effects were observed and the bottom was constrained to 0).

[3] = system: IL-6; assay: IL-6 secretion in hPBMC using R848 stimulation; type: cell-based, human; conditions: Homo sapiens, 20 h
[4] = system: OCI-LY10; assay: CTG Cell Viability Assay - OCI-LY10; type: cell-based, human; conditions: Homo sapiens, OCI-LY10, 4 days, read-out: CTG Cell Viability Assay - OCI-LY10: Average external-IC50
How it was run: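 Viability read by CellTiter-Glo luminescence after 4 days at 37° C under 5% CO2 with compound (top 10 μM final, 1:3 steps, 9 doses, DMSO 0.2%). Three-parameter logistic fit gave IC50.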

[5] = OCI-LY10, 4 hrs, read-out: IRAK4 MSD degradation in OCI-LY10 at 4 hrs: DC50
[6] = 20 hrs, read-out: IRAK4 degradation in hPBMC monocyte: DC50
[7] = 20 hr, flow assay, read-out: IRAK4 degradation in hPBMC monocyte at 20 hr: Average external Abs DC50
[8] = OCI-LY10, 4 hrs, MSD, read-out: IRAK4 MSD degradation in OCI-LY10 at 4 hrs: Average external-Abs DC50
[9] = OCI-LY10, 24 hrs, MSD, read-out: IRAK4 MSD degradation in OCI-LY10 at 24 hrs: Average external-Abs DC50

T1 sequence (Q9NWZ3 whole entry): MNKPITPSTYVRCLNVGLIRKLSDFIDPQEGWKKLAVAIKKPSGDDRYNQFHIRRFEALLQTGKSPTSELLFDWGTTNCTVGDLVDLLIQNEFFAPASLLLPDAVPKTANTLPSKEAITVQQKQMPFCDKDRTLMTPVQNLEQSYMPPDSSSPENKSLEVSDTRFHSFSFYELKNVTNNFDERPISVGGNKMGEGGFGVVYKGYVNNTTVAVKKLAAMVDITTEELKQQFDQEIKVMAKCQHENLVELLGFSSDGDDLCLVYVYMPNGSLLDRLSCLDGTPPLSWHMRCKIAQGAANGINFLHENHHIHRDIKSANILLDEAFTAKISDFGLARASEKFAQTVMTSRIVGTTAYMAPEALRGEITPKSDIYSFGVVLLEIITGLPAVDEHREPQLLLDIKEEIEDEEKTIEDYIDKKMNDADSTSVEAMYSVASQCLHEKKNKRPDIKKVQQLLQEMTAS

Compound	DC50 [1, 5] [nM]	DC50 [2, 6] [nM]	IC50 ([3]; hPBMC, R848 as stim, t = 20 h) [nM]	DC50 [2, 7] [nM]	IC50 ([4]; OCI-Ly10, 96 h) [nM]	other results
C[C@H]1CN(c2ccn3ncc(C(=O)NC4=NC([C@H]5CC[C@H](CN6CCC(CC#Cc7cccc8c7n(C)c(=O)n8C7CCC(=O)NC7=O)CC6)CC5)N=C4C(F)F)c3n2)C[C@H](C)O1 (stereo partly drawn) [I-549]	10 to 100	< 10	1 to 10			
Cn1c(=O)n(C2CCC(=O)NC2=O)c2cccc(CN3CCC4(CC3)CCN(C(=O)c3ccc(C5N=C(NC(=O)c6cnn7ccc(N8C[C@H]9C[C@@H]8CO9)nc67)C(C(F)F)=N5)cc3)CC4)c21 (stereo partly drawn) [I-432]			1 to 10	< 10		
Cn1c(=O)n(C2CCC(=O)NC2=O)c2cccc(CCCC3CCN(Cc4ccc(C5N=C(NC(=O)c6cnn7ccc(N8C[C@H]9C[C@@H]8CO9)nc67)C(C(F)F)=N5)cc4)CC3)c21 (stereo partly drawn) [I-428]			1 to 10	< 10		
Cn1c(=O)n(C2CCC(=O)NC2=O)c2cccc(CCC(=O)N3CCC4(CCN(C[C@H]5CC[C@H](n6cc(NC(=O)c7cnn8ccc(N9C[C@H]%10C[C@@H]9CO%10)nc78)c(C(F)F)n6)CC5)CC4)CC3)c21 (stereo partly drawn) [I-467]	< 10	< 10	< 1			
C[C@@H]1CN(c2ccn3ncc(C(=O)Nc4cn([C@H]5CC[C@H](CN6CCC(CCCc7cccc8c7n(C)c(=O)n8C7CCC(=O)NC7=O)CC6)CC5)nc4C(F)F)c3n2)C[C@H](C)O1 (stereo partly drawn) [I-540]	10 to 100	< 10	1 to 10			
Cn1c(=O)n(C2CCC(=O)NC2=O)c2cccc(CN3CC4(CCN(Cc5ccc(-n6cc(NC(=O)c7cnn8ccc(N9C[C@H]%10C[C@@H]9CO%10)nc78)c(C(F)F)n6)cc5)CC4)C3)c21 (stereo partly drawn) [I-464]	10 to 100	10 to 100	1 to 10			
Cn1c(=O)n(C2CCC(=O)NC2=O)c2ccc(CCCN3CC4(CCN(C(=O)c5ccc(C6N=C(NC(=O)c7cnn8ccc(N9C[C@H]%10C[C@@H]9CO%10)nc78)C(C(F)F)=N6)cc5)CC4)C3)cc21 (stereo partly drawn) [I-433]			< 1	< 10		
Cn1c(=O)n(C2CCC(=O)NC2=O)c2cccc(C#CCOC3CCN(C[C@H]4CC[C@H](n5cc(NC(=O)c6cnn7ccc(N8C[C@H]9CC[C@@H](C8)O9)nc67)c(C(F)F)n5)CC4)CC3)c21 (stereo partly drawn) [I-547]	< 10	< 10	1 to 10			
Cn1c(=O)n(C2CCC(=O)NC2=O)c2cccc(CCCN3CCOC4(CCN(C(=O)[C@H]5CC[C@H](n6cc(NC(=O)c7cnn8ccc(N9C[C@H]%10C[C@@H]9CO%10)nc78)c(C(F)F)n6)CC5)CC4)C3)c21 (stereo partly drawn) [I-431]			< 1	< 10		
Cn1c(=O)n(C2CCC(=O)NC2=O)c2cccc(CCCN3CCOC4(CCN(C[C@H]5CC[C@H](n6cc(NC(=O)c7cnn8ccc(N9C[C@H]%10C[C@@H]9CO%10)nc78)c(C(F)F)n6)CC5)CC4)C3)c21 (stereo partly drawn) [I-434]			< 1	< 10		
Cn1c(=O)n(C2CCC(=O)NC2=O)c2cccc(CCCOC3CCN(C[C@H]4CC[C@H](n5cc(NC(=O)c6cnn7ccc(N8C[C@H]9CC[C@@H](C8)O9)nc67)c(C(F)F)n5)CC4)CC3)c21 (stereo partly drawn) [I-521]	10 to 100	< 10			> 1000	
O=C1CCC(n2c3cccc(CCCN4CC5(CCN(C[C@H]6CC[C@H](n7cc(NC(=O)c8cnn9ccc(N%10C[C@H]%11C[C@@H]%10CO%11)nc89)c(C(F)F)n7)CC6)CC5)C4)c3c3cccnc32)C(=O)N1 (stereo partly drawn) [I-519]	10 to 100	100 to 1000			100 to 500	
CN(CCCOCCCNc1cccc2c1C(=O)N(C1CCC(=O)NC1=O)C2=O)C[C@H]1CC[C@H](n2cc3cc(NC(=O)c4cccc(C(F)(F)F)n4)c(C(C)(C)O)cc3n2)CC1 (stereo partly drawn) [I-333]				< 10	100 to 500	DC50 [1, 8]: 10 to 100 nM; DC50 [1, 9]: 10 to 100 nM
Cn1c(=O)n(C2CCC(=O)NC2=O)c2cccc(CCCC3CCN(C[C@H]4CC[C@H](n5cc(NC(=O)c6cnn7ccc(N8CCCOCC8)nc67)c(C(F)F)n5)CC4)CC3)c21 (stereo partly drawn) [I-524]	< 10	< 10			> 1000	
Cn1c(=O)n(C2CCC(=O)NC2=O)c2ccc(C#CCOC3CCN(C[C@H]4CC[C@H](n5cc(NC(=O)c6cnn7ccc(N8C[C@H]9C[C@@H]8CO9)nc67)c(C(F)F)n5)CC4)CC3)cc21 (stereo partly drawn) [I-483]						IC50 ([4]; 96 h): > 1000 nM; IC50 ([3]; read-out: IL-6 Secretion in hPBMC, R848 as stim, t = 20 h: IC50): 1 to 10 nM
Cn1c(=O)n(C2CCC(=O)NC2=O)c2ccc(C#CCCCNC[C@H]3CC[C@H](n4cc(NC(=O)c5cnn6ccc(N7C[C@H]8C[C@@H]7CO8)nc56)c(C(F)F)n4)CC3)cc21 (stereo in doubt) [I-512, N-[3-(difluoromethyl)-1-[4-[[5-[1-(2,6-dioxo-3-piperidyl)-3-methyl-2-oxo-benzimidazol-5-yl]pent-4-ynylamino]methyl]cyclohexyl]pyrazol-4-yl]-5-(2-oxa-5-azabicyclo[2.2.1]heptan-5-yl)pyrazolo[1,5-a]pyrimidine-3-carboxamide]	> 1000	100 to 1000			> 1000	
Cn1c(=O)n(C2CCC(=O)NC2=O)c2cccc(C#CCCCOC[C@H]3CC[C@H](n4cc(NC(=O)c5cnn6ccc(N7C[C@H]8C[C@@H]7CO8)nc56)c(C(F)F)n4)CC3)c21 (stereo partly drawn) [I-446]			10 to 100			
O=C1CCC(n2c3cccc(CCCN4CC5(CCN(C(=O)[C@H]6CC[C@H](n7cc(NC(=O)c8cnn9ccc(N%10C[C@H]%11C[C@@H]%10CO%11)nc89)c(C(F)F)n7)CC6)CC5)C4)c3c3cccnc32)C(=O)N1 (stereo partly drawn) [I-445]	10 to 100	< 10			> 1000	
Cn1c(=O)n(C2CCC(=O)NC2=O)c2cccc(CC3CCN(c4ccc(CN5CCC(n6cc(NC(=O)c7cnn8ccc(N9C[C@H]%10C[C@@H]9CO%10)nc78)c(C(F)F)n6)CC5)cc4)CC3)c21 (stereo partly drawn) [I-520]	10 to 100	< 10			> 1000	
Cn1c(=O)n(C2CCC(=O)NC2=O)c2cccc(CCCN3CC4(CCN(C(=O)[C@H]5CC[C@H](n6cc(NC(=O)c7cnn8cccnc78)c(N7CCOCC7)n6)CC5)CC4)C3)c21 (stereo partly drawn) [I-494]	100 to 1000	100 to 1000			> 1000	
Cn1c(=O)n(C2CCC(=O)NC2=O)c2cccc(CCCN3CC4(CCN(C(=O)[C@H]5CC[C@H](n6cc(NC(=O)c7cnn8ccc(N9C[C@H]%10C[C@@H]9CO%10)nc78)c(C(F)F)n6)CC5)CC4)C3)c21 (stereo partly drawn) [I-407]				< 10	> 1000	DC50 [1, 8]: < 10 nM
O=C1CCC(N2C(=O)c3cccc(NCC4CCN(C[C@H]5CC[C@H](n6cc(NC(=O)c7cnn8ccc(N9C[C@H]%10CC9CO%10)nc78)c(C(F)F)n6)CC5)CC4)c3C2=O)C(=O)N1 (stereo partly drawn) [I-442]	100 to 1000	100 to 1000			< 50	
C[C@H](CCc1cccc2c1n(C)c(=O)n2C1CCC(=O)NC1=O)OC1CCN(C[C@H]2CC[C@H](n3cc(NC(=O)c4cnn5ccc(N6C[C@H]7C[C@@H]6CO7)nc45)c(C(F)F)n3)CC2)CC1 (stereo partly drawn) [I-557]	< 10	< 10			> 1000	
CC(C)(O)c1cc2nn([C@H]3CC[C@H](CN4CCC5(CC4)CC(Nc4cccc6c4C(=O)N(C4CCC(=O)NC4=O)C6=O)C5)CC3)cc2cc1NC(=O)c1cccc(C(F)(F)F)n1 (stereo partly drawn) [I-326]				< 10	< 50	DC50 [1, 8]: < 10 nM; DC50 [1, 9]: < 10 nM
Cn1c(=O)n(C2CCC(=O)NC2=O)c2cccc(CCC(=O)N3CC4(CCN(C[C@H]5CC[C@H](n6cc(NC(=O)c7cnn8ccc(N9C[C@H]%10C[C@@H]9CO%10)nc78)c(C(F)F)n6)CC5)CC4)C3)c21 (stereo partly drawn) [I-410]				< 10	> 1000	DC50 [1, 8]: 10 to 100 nM
Cn1c(=O)n(C2CCC(=O)NC2=O)c2cccc(CCCOC[C@H]3CN(C[C@H]4CC[C@H](n5cc(NC(=O)c6cnn7ccc(N8CCOCC8)nc67)c(C(F)F)n5)CC4)CCO3)c21 (stereo partly drawn) [I-430]			1 to 10	< 10		
O=C1CCC(N2C(=O)c3cccc(NCCCOCC4CCN(C[C@H]5CC[C@H](n6cc7cc(NC(=O)c8cccc(C(F)(F)F)n8)c(C(F)F)cc7n6)CC5)CC4)c3C2=O)C(=O)N1 (stereo partly drawn) [I-327]				10 to 100	500 to 1000	DC50 [1, 8]: 10 to 100 nM; DC50 [1, 9]: 10 to 100 nM
